Tests used:
[1] = biological target: T1, Potassium voltage-gated channel subfamily A member 3 (Homo sapiens, UniProt P22001); test: cell-based; parameters: species or system Blood
[2] = biological target: T1, Potassium voltage-gated channel subfamily A member 3; parameters: species or system Blood

T1 sequence (P22001 whole entry): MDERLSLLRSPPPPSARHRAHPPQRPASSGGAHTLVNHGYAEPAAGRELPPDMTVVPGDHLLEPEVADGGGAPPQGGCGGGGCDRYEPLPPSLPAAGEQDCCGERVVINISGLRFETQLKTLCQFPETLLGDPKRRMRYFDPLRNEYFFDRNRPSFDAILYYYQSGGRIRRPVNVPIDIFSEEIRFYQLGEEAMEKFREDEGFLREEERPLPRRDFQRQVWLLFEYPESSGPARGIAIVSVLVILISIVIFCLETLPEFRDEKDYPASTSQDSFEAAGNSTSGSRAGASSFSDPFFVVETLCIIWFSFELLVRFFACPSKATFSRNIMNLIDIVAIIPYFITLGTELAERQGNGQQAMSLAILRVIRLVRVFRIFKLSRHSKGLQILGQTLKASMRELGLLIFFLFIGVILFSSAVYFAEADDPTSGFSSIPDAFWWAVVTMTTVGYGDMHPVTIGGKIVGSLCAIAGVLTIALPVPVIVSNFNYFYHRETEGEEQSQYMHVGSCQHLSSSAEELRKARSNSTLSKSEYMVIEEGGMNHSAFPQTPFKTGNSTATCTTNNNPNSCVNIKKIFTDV

CC[C@H](C)[C@@H]1NC(=O)[C@@H](NC(=O)[C@H](CO)NC(=O)[C@@H](N)Cc2cccc3ccccc23)CSSC[C@@H](C(=O)O)NC(=O)[C@H]([C@@H](C)O)NC(=O)CNC(=O)[C@@H]2CSSC[C@@H]3NC(=O)[C@H](CCC(N)=O)NC(=O)[C@H](Cc4ccccc4)NC(=O)[C@H](C)NC(=O)[C@H]([C@@H](C)O)NC(=O)[C@H](CSSC[C@H](NC(=O)[C@H](Cc4ccccc4)NC(=O)[C@H](CO)NC(=O)[C@H](CC(C)C)NC(=O)[C@H](CCCNC(=N)N)NC(=O)[C@H](Cc4ccc(O)cc4)NC(=O)[C@H](CCCCN)NC(=O)[C@H](CCSC)NC(=O)[C@H](CO)NC(=O)[C@H](Cc4cnc[nH]4)NC(=O)[C@H](CCCCN)NC3=O)C(=O)N[C@@H](CCCNC(=N)N)C(=O)N[C@@H](CCCCN)C(=O)N[C@@H]([C@@H](C)O)C(=O)N2)NC(=O)[C@H](CCCNC(=N)N)NC(=O)[C@H](CO)NC(=O)[C@H](CCCCN)NC(=O)[C@@H]2CCCN2C(=O)[C@H]([C@@H](C)CC)NC(=O)[C@H]([C@@H](C)O)NC(=O)[C@H](CC(=O)O)NC1=O
IC50 [1]: 0.222 nM
IC50 [2]: 0.248 nM

CC[C@H](C)[C@@H]1NC(=O)[C@@H](NC(=O)[C@H](CO)NC(=O)[C@@H](N)CCCNC(=N)N)CSSC[C@@H](C(=O)O)NC(=O)[C@H]([C@@H](C)O)NC(=O)CNC(=O)[C@@H]2CSSC[C@@H]3NC(=O)[C@H](CCC(N)=O)NC(=O)[C@H](Cc4ccccc4)NC(=O)[C@H](C)NC(=O)[C@H]([C@@H](C)O)NC(=O)[C@H](CSSC[C@H](NC(=O)[C@H](Cc4ccccc4)NC(=O)[C@H](CO)NC(=O)[C@H](CC(C)C)NC(=O)[C@H](CCCNC(=N)N)NC(=O)[C@H](Cc4ccc(O)cc4)NC(=O)[C@H](CCCCN)NC(=O)[C@H](CCSC)NC(=O)[C@H](CO)NC(=O)[C@H](Cc4cnc[nH]4)NC(=O)[C@H](Cc4cccc5ccccc45)NC3=O)C(=O)N[C@@H](CCCNC(=N)N)C(=O)N[C@@H](CCCCN)C(=O)N[C@@H]([C@@H](C)O)C(=O)N2)NC(=O)[C@H](CCCNC(=N)N)NC(=O)[C@H](CO)NC(=O)[C@H](CCCCN)NC(=O)[C@@H]2CCCN2C(=O)[C@H]([C@@H](C)CC)NC(=O)[C@H]([C@@H](C)O)NC(=O)[C@H](CC(=O)O)NC1=O
IC50 [1]: 0.419 nM
IC50 [2]: 0.375 nM

CC[C@H](C)[C@@H]1NC(=O)[C@@H](NC(=O)[C@H](CO)NC(=O)[C@@H](N)CCCNC(=N)N)CSSC[C@@H](C(=O)O)NC(=O)[C@H](CCC(=O)O)NC(=O)CNC(=O)[C@@H]2CSSC[C@@H]3NC(=O)[C@H](CCC(N)=O)NC(=O)[C@H](Cc4ccccc4)NC(=O)[C@H](C)NC(=O)[C@H]([C@@H](C)O)NC(=O)[C@H](CSSC[C@H](NC(=O)[C@H](Cc4ccccc4)NC(=O)[C@H](CO)NC(=O)[C@H](CC(C)C)NC(=O)[C@H](CCCNC(=N)N)NC(=O)[C@H](Cc4ccc(O)cc4)NC(=O)[C@H](CCCCN)NC(=O)[C@H](CCSC)NC(=O)[C@H](CO)NC(=O)[C@H](Cc4cnc[nH]4)NC(=O)[C@H](CCCCN)NC3=O)C(=O)N[C@@H](CCCNC(=N)N)C(=O)N[C@@H](CCCCN)C(=O)N[C@@H]([C@@H](C)O)C(=O)N2)NC(=O)[C@H](CCCNC(=N)N)NC(=O)[C@H](CO)NC(=O)[C@H](CCCCN)NC(=O)[C@@H]2CCCN2C(=O)[C@H]([C@@H](C)CC)NC(=O)[C@H]([C@@H](C)O)NC(=O)[C@H](CC(=O)O)NC1=O
IC50 [2]: 0.124 nM

CC[C@H](C)[C@@H]1NC(=O)[C@@H](NC(=O)[C@H](CO)NC(=O)[C@@H](N)CCCNC(=N)N)CSSC[C@@H](C(=O)O)NC(=O)[C@H]([C@@H](C)O)NC(=O)CNC(=O)[C@@H]2CSSC[C@@H]3NC(=O)[C@H](CCC(N)=O)NC(=O)[C@H](Cc4ccccc4)NC(=O)[C@H](C)NC(=O)[C@H]([C@@H](C)O)NC(=O)[C@H](CSSC[C@H](NC(=O)[C@H](Cc4ccccc4)NC(=O)[C@H](CO)NC(=O)[C@H](CC(C)C)NC(=O)[C@H](C)NC(=O)[C@H](Cc4ccc(O)cc4)NC(=O)[C@H](CCCCN)NC(=O)[C@H](CCSC)NC(=O)[C@H](CO)NC(=O)[C@H](Cc4cnc[nH]4)NC(=O)[C@H](CCCCN)NC3=O)C(=O)N[C@@H](CCCNC(=N)N)C(=O)N[C@@H](CCCCN)C(=O)N[C@@H]([C@@H](C)O)C(=O)N2)NC(=O)[C@H](CCCNC(=N)N)NC(=O)[C@H](CO)NC(=O)[C@H](CCCCN)NC(=O)[C@@H]2CCCN2C(=O)[C@H]([C@@H](C)CC)NC(=O)[C@H]([C@@H](C)O)NC(=O)[C@H](CC(=O)O)NC1=O
IC50 [1]: 0.045 nM
IC50 [2]: 0.186 nM

CC[C@H](C)[C@@H]1NC(=O)[C@@H](NC(=O)[C@H](CO)NC(=O)[C@@H](N)CCCNC(=N)N)CSSC[C@@H](C(=O)O)NC(=O)[C@H]([C@@H](C)O)NC(=O)CNC(=O)[C@@H]2CSSC[C@@H]3NC(=O)[C@H](CCC(N)=O)NC(=O)[C@H](Cc4ccccc4)NC(=O)[C@H](C)NC(=O)[C@H]([C@@H](C)O)NC(=O)[C@H](CSSC[C@H](NC(=O)[C@H](Cc4ccccc4)NC(=O)[C@H](CO)NC(=O)[C@H](C)NC(=O)[C@H](CCCNC(=N)N)NC(=O)[C@H](Cc4ccc(O)cc4)NC(=O)[C@H](CCCCN)NC(=O)[C@H](CCSC)NC(=O)[C@H](CO)NC(=O)[C@H](Cc4cnc[nH]4)NC(=O)[C@H](CCCCN)NC3=O)C(=O)N[C@@H](CCCNC(=N)N)C(=O)N[C@@H](CCCCN)C(=O)N[C@@H]([C@@H](C)O)C(=O)N2)NC(=O)[C@H](CCCNC(=N)N)NC(=O)[C@H](CO)NC(=O)[C@H](CCCCN)NC(=O)[C@@H]2CCCN2C(=O)[C@H]([C@@H](C)CC)NC(=O)[C@H]([C@@H](C)O)NC(=O)[C@H](CC(=O)O)NC1=O
IC50 [1]: 0.199 nM
IC50 [2]: 0.641 nM

CC[C@H](C)[C@@H]1NC(=O)[C@@H](NC(=O)[C@H](CO)NC(=O)[C@@H](N)CCCNC(=N)N)CSSC[C@@H](C(=O)O)NC(=O)[C@H]([C@@H](C)O)NC(=O)[C@H](C)NC(=O)[C@@H]2CSSC[C@@H]3NC(=O)[C@H](CCC(N)=O)NC(=O)[C@H](Cc4ccccc4)NC(=O)[C@H](C)NC(=O)[C@H]([C@@H](C)O)NC(=O)[C@H](CSSC[C@H](NC(=O)[C@H](Cc4ccccc4)NC(=O)[C@H](CO)NC(=O)[C@H](CC(C)C)NC(=O)[C@H](CCCNC(=N)N)NC(=O)[C@H](Cc4ccc(O)cc4)NC(=O)[C@H](CCCCN)NC(=O)[C@H](CCSC)NC(=O)[C@H](CO)NC(=O)[C@H](Cc4cnc[nH]4)NC(=O)[C@H](CCCCN)NC3=O)C(=O)N[C@@H](CCCNC(=N)N)C(=O)N[C@@H](CCCCN)C(=O)N[C@@H]([C@@H](C)O)C(=O)N2)NC(=O)[C@H](CCCNC(=N)N)NC(=O)[C@H](CO)NC(=O)[C@H](CCCCN)NC(=O)[C@@H]2CCCN2C(=O)[C@H]([C@@H](C)CC)NC(=O)[C@H]([C@@H](C)O)NC(=O)[C@H](CC(=O)O)NC1=O
IC50 [1]: 0.059 nM
IC50 [2]: 0.122 nM

CC[C@H](C)[C@@H]1NC(=O)[C@@H](NC(=O)[C@H](CO)NC(=O)[C@@H](N)CCCNC(=N)N)CSSC[C@@H](C(=O)O)NC(=O)[C@H]([C@@H](C)O)NC(=O)CNC(=O)[C@@H]2CSSC[C@@H]3NC(=O)[C@H](CCC(N)=O)NC(=O)[C@H](Cc4ccccc4)NC(=O)[C@H](C)NC(=O)[C@H]([C@@H](C)O)NC(=O)[C@H](CSSC[C@H](NC(=O)[C@H](Cc4ccccc4)NC(=O)[C@H](CO)NC(=O)[C@H](CC(C)C)NC(=O)[C@H](CCCNC(=N)N)NC(=O)[C@H](Cc4ccc(O)cc4)NC(=O)[C@H](CCCCN)NC(=O)[C@H](CCSC)NC(=O)[C@H](CO)NC(=O)[C@H](Cc4cnc[nH]4)NC(=O)[C@H](CCCCN)NC3=O)C(=O)N[C@@H](CCCNC(=N)N)C(=O)N[C@@H](CCCCN)C(=O)N[C@@H]([C@@H](C)O)C(=O)N2)NC(=O)[C@H](Cc2cccc3ccccc23)NC(=O)[C@H](CO)NC(=O)[C@H](CCCCN)NC(=O)[C@@H]2CCCN2C(=O)[C@H]([C@@H](C)CC)NC(=O)[C@H]([C@@H](C)O)NC(=O)[C@H](CC(=O)O)NC1=O
IC50 [1]: 1.14 nM
IC50 [2]: 1.65 nM

CC[C@H](C)[C@@H]1NC(=O)[C@@H](NC(=O)[C@H](CO)NC(=O)[C@@H](N)CCCNC(=N)N)CSSC[C@@H](C(=O)O)NC(=O)[C@H]([C@@H](C)O)NC(=O)CNC(=O)[C@@H]2CSSC[C@@H]3NC(=O)[C@H](CCC(N)=O)NC(=O)[C@H](Cc4ccccc4)NC(=O)[C@H](C)NC(=O)[C@H]([C@@H](C)O)NC(=O)[C@H](CSSC[C@H](NC(=O)[C@H](Cc4ccccc4)NC(=O)[C@H](CO)NC(=O)[C@H](CC(C)C)NC(=O)[C@H](CCCNC(=N)N)NC(=O)[C@H](Cc4ccc(O)cc4)NC(=O)[C@H](CCCCN)NC(=O)[C@H](CCSC)NC(=O)[C@H](CO)NC(=O)[C@H](Cc4cccc5ccccc45)NC(=O)[C@H](CCCCN)NC3=O)C(=O)N[C@@H](CCCNC(=N)N)C(=O)N[C@@H](CCCCN)C(=O)N[C@@H]([C@@H](C)O)C(=O)N2)NC(=O)[C@H](CCCNC(=N)N)NC(=O)[C@H](CO)NC(=O)[C@H](CCCCN)NC(=O)[C@@H]2CCCN2C(=O)[C@H]([C@@H](C)CC)NC(=O)[C@H]([C@@H](C)O)NC(=O)[C@H](CC(=O)O)NC1=O
IC50 [1]: 0.153 nM
IC50 [2]: 0.255 nM

CC[C@H](C)[C@@H]1NC(=O)[C@@H](NC(=O)[C@H](CO)NC(=O)[C@@H](N)CCCNC(=N)N)CSSC[C@@H](C(=O)O)NC(=O)[C@H]([C@@H](C)O)NC(=O)CNC(=O)[C@@H]2CSSC[C@@H]3NC(=O)[C@H](CCC(N)=O)NC(=O)[C@H](Cc4ccccc4)NC(=O)[C@H](C)NC(=O)[C@H]([C@@H](C)O)NC(=O)[C@H](CSSC[C@H](NC(=O)[C@H](Cc4ccccc4)NC(=O)[C@H](CO)NC(=O)[C@H](CC(C)C)NC(=O)[C@H](CCCNC(=N)N)NC(=O)[C@H](Cc4ccc(O)cc4)NC(=O)[C@H](CCCCN)NC(=O)[C@H](CCSC)NC(=O)[C@H](CO)NC(=O)[C@H](Cc4cnc[nH]4)NC(=O)[C@H](CCCCN)NC3=O)C(=O)N[C@@H](CCCNC(=N)N)C(=O)N[C@@H](CCCCN)C(=O)N[C@@H]([C@@H](C)O)C(=O)N2)NC(=O)[C@H](CCCNC(=N)N)NC(=O)[C@H](CO)NC(=O)[C@H](CCCCN)NC(=O)[C@H](CCC(=O)O)NC(=O)[C@H]([C@@H](C)CC)NC(=O)[C@H]([C@@H](C)O)NC(=O)[C@H](CC(=O)O)NC1=O
IC50 [2]: 0.239 nM
